# Assay results taken from patent US20240130988A1, “Use of stilbene compounds in the preparation of anti-tumor drugs” (Guangzhou AnHao Pharmaceutical Technology CO., LTD., priority 2022, published 2024).
# Columns and labels:
# Type in all cases: in vivo
# human lung cancer A549 = assay: Compound 8 combined with carboplatin, human lung cancer A549 xenograft in nude mice; settings: ip: carboplatin 10 mg/kg, compound 8 200 mg/kg, combination 10 + 200
# Description: (§1) Experimental method: The model of human lung cancer A549 transplant tumor in nude mice was established by subcutaneously inoculating human lung cancer A549 cell lines into the armpits of nude mice. Cells were inoculated in an amount of 1×10^6, and after formation of the transplanted tumors by inoculation, the cells were passed 3 generations in nude mice before use. The vigorous growth of tumor tissue was cut into approximate 1.5 mm^3, and homogenized under sterile conditions, to prepare 1×10^7/mL of cell suspension. 0.1 mL of cell suspension was subcutaneously inoculated into the right armpit of nude mice. For transplanted tumors in nude mice, the diameter was measured with vernier caliper. After the tumor grew to 100 mm^3, the animals were randomly divided into groups, with 6 mice in each group. Using the method of measuring tumor diameter, the anti-tumor effect of test compound was dynamically Observed. Compound 8 was administered at 200 mg/kg by intraperitoneal injection, once every other day, for three weeks; carboplatin was administered at 10 mg/kg by intraperitoneal injection, once every other day, for three weeks. The measurement frequency of tumor diameter was once every three days. The dosage by volume was 0.1 mL/20 g. The mice in the negative control group were given an equal amount of physiological saline by intravenous injection. The effect of combined medicaments was evaluated based on the Q value calculated by Jin's formula: […]
# Ea+b represents the tumor inhibitory rate of the combined medicaments, while Ea and Eb represent the tumor inhibitory rates of medicament A and medicament B, respectively. For example, the Q value of 0.85-1.15 means additive action (+), while the Q value of >1.15 means synergistic action (++).
# [1] = tested on: human gastric cancer SGC7901; assay: Compound 6 combined with paclitaxel, human gastric cancer SGC7901 xenograft in nude mice; settings: paclitaxel 10 mg/kg iv, compound 6 200 mg/kg ip, combination 10 + 200
# Description: as §1, with “gastric” for “lung”, “SGC7901” for “A549”, “Using the method of measuring tumor diameter, the anti-tumor effect of test compound was dynamically Observed. Compound 8 was administered at 200 mg/kg by intraperitoneal injection, once every other day, for three weeks; carboplatin was administered at 10 mg/kg by intraperitoneal injection, once every other day, for three weeks.” left out
# Ea+b represents the tumor inhibitory rate of the combined medicaments, while Ea and Eb represent the tumor inhibitory rates of medicament A and medicament B, respectively.
# [2] = tested on: human liver cancer Bel7404; assay: Compound 3 combined with lenvatinib, human liver cancer Bel7404 xenograft in nude mice; settings: po: lenvatinib 10 mg/kg, compound 3 400 mg/kg, combination 10 + 400
# Description: Experimental method: The model of human liver cancer Bel7404 transplant tumor in nude mice was established by subcutaneously inoculating human liver cancer Bel7404 cell lines into the armpits of nude mice. Cells were inoculated in an amount of 1×10^6, and after formation of the transplanted tumors by inoculation, the cells were passed 3 generations in nude mice before use. The vigorous growth of tumor tissue was cut into approximate 1.5 mm^3, and homogenized under sterile conditions, to prepare 1×10^7/mL of cell suspension. 0.1 mL of cell suspension was subcutaneously inoculated into the right armpit of nude mice. For transplanted tumors in nude mice, the diameter of the transplanted tumor was measured with vernier caliper. After the tumor grew to 100 mm^3, the animals were randomly divided into groups, with 6 animals in each group. Using the method of measuring tumor diameter, the anti-tumor effect of test compound was dynamically observed. Compound 3 was orally administered at 400 mg/kg, once a day, for three weeks; lenvartinib was also orally administered at 10 mg/kg, once a day, for two weeks. The measurement frequency of tumor diameter was once every three days. The animals in the negative control group were orally given an equal amount of physiological saline. The effect of combined medicaments was evaluated based on the Q value calculated by the Jin's formula: […]
# Ea+b represents the tumor inhibitory rate of the combined medicaments, while Ea and Eb represent the tumor inhibitory rates of medicament A and medicament B, respectively. For example, the Q value of 0.85-1.15 means additive action (+), and the Q value of >1.15 means synergistic action (++).
structure (smiles),measurement,setting,value
N.N.O=C([O-])C1(C(=O)[O-])CCC1.[Pt+2] [Carboplatin],RTV (d 21),human lung cancer A549,6.63 ± 1.42
same,Terminal weight,human lung cancer A549,21.5 ± 0.9 g
same,Tumor inhibitory rate %,human lung cancer A549,48.48%
"CC(=O)O[C@H]1C(=O)[C@@]2(C)[C@H]([C@H](OC(=O)c3ccccc3)[C@]3(O)C[C@H](OC(=O)[C@H](O)[C@@H](NC(=O)c4ccccc4)c4ccccc4)C(C)=C1C3(C)C)[C@]1(OC(C)=O)CO[C@@H]1C[C@@H]2O [Paclitaxel, reference compound]",RTV (d 21),[1],7.37 ± 1.76
same,Terminal weight,[1],21.7 ± 0.6 g
same,Tumor inhibitory rate %,[1],45.49%
"COc1cc2nccc(Oc3ccc(NC(=O)NC4CC4)c(Cl)c3)c2cc1C(N)=O [Lenvatinib, reference compound]",RTV (d 21),[2],3.89 ± 1.46
same,Terminal weight,[2],21.8 ± 0.7 g
same,Tumor inhibitory rate %,[2],65.36%
